# Measurements taken from article doi:10.1101/2025.03.14.643404, “A Bivalent Molecular Glue Linking Lysine Acetyltransferases to Oncogene-induced Cell Death” (bioRxiv, 2025).
# Like-named read-outs stand apart in the source and are kept apart here.
# Key:
# CBP^BD-BCL6^BTB = test: TR-FRET ternary assay CBPBD-BCL6BTB; format: binding, human
# Description: 10 μL reactions containing 10 nM 6x-His- p300^BD or 6x-His-CBP^BD, 200 nM BiotinylatedAvi-BCL6^BTB, 20 nM streptavidin-FITC (SA1001, Thermo), and 1:400 anti-6x-His-terbium (PerkinElmer 61HI2TLF) in buffer containing 20 mM HEPES pH 7.5, 150 mM NaCl, 0.1% BSA, 0.1% NP-40, and 1 mM TCEP were plated in low-volume 384 well plates. Drugs were digitally dispensed (Tecan D300e) into protein-containing wells, and the plate was allowed to incubate in the dark for 1 hour at room temperature. Emission at 490 nm (terbium) and 520 nm (FITC) was measured on a PHERAstar FS plate reader (BMG Labtech) upon excitation with 337 nm. The ratio of signal at 520 nm to 490 nm was calculated and normalized to DMSO-treated protein.
# SUDHL5 = test: Cell viability, 7 days compound treatment (Cell Titer-Glo), SUDHL5; format: cell-based; details: Homo sapiens, SU-DHL-5, 168 h; SUDHL5, 7 days; read-out: IC50 of antiproliferation
# Description: Fifteen thousand cells were seeded in 100 μl of media per well of a U-bottom 96-well plate and treated with digitally dispensed drugs (Tecan D300e) for the indicated times and doses. After 96 hours, plates were centrifuged for 750 rpm for 3 minutes, and old media was exchanged for 100 μl of fresh media. Drug treatment was then repeated at the indicated doses. 72 hours following media change, cells were transferred to 96 well flat-bottom opaque plates. Viability was measured by adding 25 μL Cell Titer-Glo reagent (Promega G7570) to each well and luminescence was measured (BMG Labtech Pherastar FS). The background luminescence was subtracted, and the signal was normalized to DMSO-treated cells. IC50 measurements on cell lines were calculated using at least three biological replicates by separate cell passages. Fit of dose–response curves to data and statistical analysis was performed using GraphPad PRISM using the four-parameter log(inhibitor) vs response function.
# SUDHL5 cells = test: Cell cycle analysis (EdU / 7-AAD) of SUDHL5; format: cell-based, human; details: SUDHL5, 10 nM, 24 hours
# Description: 2 million SUDHL5 cells were plated in 4 mL of media in 6-well plates and treated with 10 nM of drug. After 22 hours, cells were dosed with 10 μM 5-ethynyl-2’-deoxyuridine (EdU) and allowed to incubate for an additional 2 hours, at which point cells were harvested and collected by centrifuging at 300g for 4 minutes at 4°C. Cells were washed once with 1% BSA in PBS. 1.1 million cells in 1% BSA/PBS were then transferred to flow cytometry polypropylene tubes and centrifuged at 300g for 4 minutes at 4°C. Supernatant was removed, and cells were fixed for 15 minutes in the dark at room temperature with 100 μL of 4% PFA in PBS, in which gentle flicking was used to resuspend cells. Cells were then washed with 1 mL of 1% BSA/PBS and permeabilized with 100 μL of 0.1% Triton-X for 30 minutes at room temperature in the dark. Cells were washed with 3 mL 1% BSA/PBS, then incubated in the dark for 30 minutes with a cocktail of AlexaFluor-488-Azide (438 μL PBS, 10 μL 100 mM CuSO4, 2 μL 488-azide, and 50 μL of 1x EdU Reaction Buffer dissolved in water) (Invitrogen C10337). Cells were washed with 1 mL 1% BSA in PBS, then incubated with a reaction cocktail of 7-AAD/RNAseA for 30 minutes in the dark (500 μL 1% BSA/PBS, 2 μL 7-AAD (BD 559925), 5 μL RNAseA (Invitrogen 12091021)). […] Cells were gently agitated by shaking, then analyzed through flow cytometry on a BD Accuri. […]
# BCL6^BTB = target: T1, BCL6^BTB (Homo sapiens, UniProt P41182+Q09472, C67R/C84N/C8Q); test: Isothermal calorimetry, BCL6BTB titrations; format: binding; details: ITC; for Kd: 25 °C
# T1 construct: human BCL6 (residues 5–129; Uniprot: P41182); Trx (N, cleaved yes); 6xHis (N, cleaved yes); made in house; host or cells: bacteria (pET-48b(+) vector)
# Description: 12 hours prior to performing ITC, frozen stocks of 6xHis-p300^BD and BCL6^BTB were dialyzed for two hours in ITC buffer at 4°C (50 mM HEPES pH 7.4, 100 μM TCEP, 150 mM NaCl), followed by dialysis in fresh ITC buffer overnight at 4°C to remove glycerol and equalize protein mixtures. Samples were centrifuged at 10,000g for 10 min to remove any precipitate. In all titrations, DMSO was added to protein mixtures to match the DMSO concentration of ligand dissolved in ITC buffer. For binary assays with TCIP3, dialyzed 6xHis-p300^BD or BCL6^BTB were titrated from the syringe into a cell containing TCIP3 dissolved in ITC buffer. For p300 titrations, 50 μM or 25 μM protein was titrated into 5 μM or 2.5 μM, respectively, of TCIP3. For BCL6 titrations, 70 μM or 40 μM protein was titrated into 7 μM or 5 μM, respectively, of TCIP3. For ternary titrations, 20× 6xHis-p300^BD was incubated with 1x TCIP3 in the cell to drive saturation of the binary complex, followed by a titration of 10x BCL6^BTB from the syringe, at 310 rpm stirring at 25°C. The following concentrations were used in each run: 15 μM BCL6^BTB, 30 μM p300, and 1.5 μM TCIP3; 18 μM BCL6 ^BTB, 36 μM 6xHis-p300^BD, and 1.8 μM TCIP3; or 10 μM BCL6 ^BTB, 20 μM 6xHis-p300^BD, and 1 μM TCIP3. Alternatively, 20x BCL6^BTB was incubated with 1x TCIP3 in the cell to drive saturation of the binary complex, followed by a titration of 10× 6xHis-p300^BD from the syringe, at 310 rpm stirring at 25°C. The following concentrations were used in each run: 30 μM BCL6, 15 μM 6xHis-p300^BD, and 1.5 μM TCIP3; 20 μM BCL6 ^BTB, 10 μM 6xHis-p300^BD, and 1 μM TCIP3; or 40 μM BCL6 ^BTB, 20 μM 6xHis-p300^BD, and 2 μM TCIP3. The first one or two injections and outliers from instrument noise were routinely excluded. Data were fit to a one-site model using MicroCal LLC Origin software. The following injection parameters were used for each run: (Total injection number: 35; Cell temp: 25 °C; Ref power: 10; Initial delay: 250 s; stirring speed: 310; Feedback mode: High; volume: 8 μL; Duration: 13.7 s; Filter period: 2; initial injection volume: 2 μL).
smiles,measurement,setting,value
CNC(=O)COc1cc2cc(Nc3nc(N4CCC(C(=O)N5CCN(CCC(=O)N6CCC(n7nc(N8CCCc9cc(-c%10cnn(C)c%10)c(C(F)F)cc98)c8c7CCN(C(=O)NC)C8)CC6)CC5)CC4)ncc3Cl)cc(OC)c2n(C)c1=O [TCIP3],"TR-FRET signal AUC, times higher than NEG1",CBP^BD-BCL6^BTB,16 times
same,"TR-FRET signal AUC, times higher than NEG2",CBP^BD-BCL6^BTB,25 times
same,IC50,SUDHL5,1.2 nM
same,cell cycle effect,SUDHL5 cells,enrichment in cells arrested in G0/G1
same,Kd,"BCL6^BTB; BCL6BTB titrated into TCIP3, read-out: Kd, binary BCL6:TCIP3",265 nM
same,Kd,"BCL6^BTB; BCL6BTB titrated into p300BD-saturated TCIP3, read-out: Kd, BCL6 into p300:TCIP3 (ternary)",19.8 nM
same,α BCL6 into p300:TCIP3,BCL6^BTB; α = Kd binary/Kd ternary,13
